Test results: ChEMBL document CHEMBL2434862, “4-Phenylbutyric acid protects against neuronal cell death by primarily acting as a chemical chaperone rather than histone deacetylase inhibitor” (Bioorg Med Chem Lett, 2013)
Active and inactive are the calls of the source. The rule behind the calls is not given here.

Legend:
[1] = biological target: Histone deacetylase (Homo sapiens) (UniProt Q13547+O15379+Q9UBN7+Q92769+Q9UQL6+Q8WUI4+Q9BY41+Q96DB2+P56524+Q9UKV0+Q969S8); conditions: SH-SY5Y, at 3 mM
Description: Inhibition of HDAC in human SH-SY5Y cells under ER stress assessed as acetylated H3 levels at 3 mM after 48 hrs by Western blot analysis in presence of tunicamycin

[2] = Chemical chaperone activity assessed as suppression of alpha-lactalbumin-bovine serum albumin aggregation at 3 mM by turbidity assay; assay type: functional

Row | Structure (SMILES) | inhibition [1] | Activity [2]
1 | O=C(O)CCCc1ccccc1 | Active | Active
2 | COc1ccc(CCCC(=O)O)cc1 | Active | 
3 | O=C(O)CCCc1ccc([N+](=O)[O-])cc1 | Active | 
